Results taken from article PMC11995724, “Antibiotic target discovery by integrated phenotypic and activity-based profiling of electrophilic fragments” (Cell chemical biology, 2025).

Assay: in vitro
Details: human, hek293t cells

Row | Structure (SMILES) | viability at 48 h, 25 µM
1 | C=CC(=O)N1CCn2nccc21 [1-P16, 1-{1H,2H,3H-pyrazolo[1,5-a]imidazol-1-yl}prop-2-en-1-one] | 56.6%
2 | C=CC(=O)N1CSCC1C(=O)NCC1CC1 (stereo not shown) [1-P17, N-(cyclopropylmethyl)-3-(prop-2-enoyl)-1,3-thiazolidine-4-carboxamide] | 105%
3 | C=CC(=O)N1CC(OCc2nc(C)no2)C1 [1-P18, 1-{3-[(3-methyl-1,2,4-oxadiazol-5-yl)methoxy]azetidin-1-yl}prop-2-en-1-one] | 67.7%
4 | C=CC(=O)NCc1ccc(N2CCCC(C(N)=O)C2)cc1 (stereo not shown) [1-P19, 1-{4-[(prop-2-enamido)methyl]phenyl}piperidine-3-carboxamide] | 126%
5 | C=CC(=O)N1CCOC(c2ccccc2Cl)C1 (stereo not shown) [1-P20, 1-[2-(2-chlorophenyl)morpholin-4-yl]prop-2-en-1-one] | 72.7%
6 | C=CC(=O)NCCC1=CCCCCC1 [1-P21, N-[2-(cyclohept-1-en-1-yl)ethyl]prop-2-enamide] | 93.5%
7 | C=CC(=O)N1CCCC(C2CCN(C(=O)c3cc(C)nn3C)CC2)C1 (stereo not shown) [1-P22, 1-[1'-(1,3-dimethyl-1H-pyrazole-5-carbonyl)-[3,4'-bipiperidin]-1-yl]prop-2-en-1-one] | 55.9%
8 | C=CC(=O)NCCn1nnnc1C [2-A03, N-[2-(5-methyl-1H-1,2,3,4-tetrazol-1-yl)ethyl]prop-2-enamide] | 110%
9 | C=CC(=O)Nc1ccnc(OC2CCCCC2)c1 [2-A04, N-[2-(cyclohexyloxy)pyridin-4-yl]prop-2-enamide] | 0.76%
10 | C=CC(=O)NC(C)c1cnc(C(F)(F)F)s1 (stereo not shown) [2-A05, N-{1-[2-(trifluoromethyl)-1,3-thiazol-5-yl]ethyl}prop-2-enamide] | 73.5%
11 | C=CC(=O)N1CCC(Cc2nc(C3CCC3)no2)CC1 [2-A06, 1-{4-[(3-cyclobutyl-1,2,4-oxadiazol-5-yl)methyl]piperidin-1-yl}prop-2-en-1-one] | 93%
12 | C=CC(=O)N(Cc1c2c(nn1C)CCOC2)c1cc(C)cc(C)c1 [2-A07, N-(3,5-dimethylphenyl)-N-({2-methyl-2H,4H,6H,7H-pyrano[4,3-c]pyrazol-3-yl}methyl)prop-2-enamide] | 57.4%
13 | C=CC(=O)N1CCC(C(=O)Nc2ncc(CCO)s2)CC1 [2-A08, N-[5-(2-hydroxyethyl)-1,3-thiazol-2-yl]-1-(prop-2-enoyl)piperidine-4-carboxamide] | 79.1%
14 | C=CC(=O)NCCN(C)S(=O)(=O)c1cccs1 [2-A09, N-[2-(N-methylthiophene-2-sulfonamido)ethyl]prop-2-enamide] | 129%
15 | C=CC(=O)NC(c1ccc(C)cc1)C(C)S(C)(=O)=O (stereo not shown) [2-A10, N-[2-methanesulfonyl-1-(4-methylphenyl)propyl]prop-2-enamide] | 100%
16 | C=CC(=O)NCC1(c2nc(-c3ccccc3)cs2)CCOCC1 [2-A11, N-{[4-(4-phenyl-1,3-thiazol-2-yl)oxan-4-yl]methyl}prop-2-enamide] | 93.1%
17 | C=CC(=O)NCc1ccc(C(=O)N2CCC(NC(C)=O)CC2)cc1 [2-A12, N-{[4-(4-acetamidopiperidine-1-carbonyl)phenyl]methyl}prop-2-enamide] | 90.5%
18 | C=CC(=O)N(Cc1c(F)cc(C)cc1Cl)C1CCCOCC1 (stereo not shown) [2-A13, N-[(2-chloro-6-fluoro-4-methylphenyl)methyl]-N-(oxepan-4-yl)prop-2-enamide] | 99%
19 | C=CC(=O)NCCc1ccc(S(C)(=O)=O)cc1 [2-A14, N-[2-(4-methanesulfonylphenyl)ethyl]prop-2-enamide] | 93.7%

Row | Structure (SMILES) | viability at 48 h, 25 µM
20 | C=CC(=O)N1CC[C@H](Oc2ccc(F)cc2)C1 [2-A15, 1-[(3S)-3-(4-fluorophenoxy)pyrrolidin-1-yl]prop-2-en-1-one] | 185%
21 | C=CC(=O)N1CC(S(=O)(=O)N2CCOCC2)C1 [2-A16, 1-[3-(morpholine-4-sulfonyl)azetidin-1-yl]prop-2-en-1-one] | 74%
22 | C=CC(=O)Nc1cc(C)n(CC(C)c2nnc3n2CCCCC3)n1 (stereo not shown) [2-A17, N-[5-methyl-1-(2-{5H,6H,7H,8H,9H-[1,2,4]triazolo[4,3-a]azepin-3-yl}propyl)-1H-pyrazol-3-yl]prop-2-enamide] | 175%
23 | C=CC(=O)NC1CC2CCC(C1)N2S(C)(=O)=O (stereo not shown) [2-A18, N-{8-methanesulfonyl-8-azabicyclo[3.2.1]octan-3-yl}prop-2-enamide] | 93.8%
24 | C=CC(=O)NCc1nc(C2CC2)cs1 [2-A19, N-[(4-cyclopropyl-1,3-thiazol-2-yl)methyl]prop-2-enamide] | 103%
25 | C=CC(=O)N1CCC(n2ccc(C)n2)CC1 [2-A21, 1-[4-(3-methyl-1H-pyrazol-1-yl)piperidin-1-yl]prop-2-en-1-one] | 139%
26 | C=CC(=O)N(c1cc(C)ccc1C#N)C(C)C [2-A22, N-(2-cyano-5-methylphenyl)-N-(propan-2-yl)prop-2-enamide] | 111%
27 | C=CC(=O)NCc1ccc(-n2ccc(C3CC3)n2)cc1 [2-B03, N-{[4-(3-cyclopropyl-1H-pyrazol-1-yl)phenyl]methyl}prop-2-enamide] | 85.9%
28 | C=CC(=O)N1CCC(C(=O)NCCC2(O)CCCOC2)CC1 (stereo not shown) [2-B04, N-[2-(3-hydroxyoxan-3-yl)ethyl]-1-(prop-2-enoyl)piperidine-4-carboxamide] | 70%
29 | C=CC(=O)NCC1CCN(C)C1=O (stereo not shown) [2-B05, N-[(1-methyl-2-oxopyrrolidin-3-yl)methyl]prop-2-enamide] | 71.1%
30 | C=CC(=O)N1CCC(C(=O)N2CCC(c3ncco3)CC2)CC1 [2-B06, 1-{4-[4-(1,3-oxazol-2-yl)piperidine-1-carbonyl]piperidin-1-yl}prop-2-en-1-one] | 78.3%
31 | C=CC(=O)N(C1CCCC1)C(C)c1nnc2ccccn12 (stereo not shown) [2-B07, N-cyclopentyl-N-(1-{[1,2,4]triazolo[4,3-a]pyridin-3-yl}ethyl)prop-2-enamide] | 51.9%
32 | C=CC(=O)N1CCC(C(=O)N2CCN(CC(C)C)C(=O)C2C)CC1 (stereo not shown) [2-B08, 3-methyl-1-(2-methylpropyl)-4-[1-(prop-2-enoyl)piperidine-4-carbonyl]piperazin-2-one] | 83.8%
33 | C=CC(=O)NCC(=C)c1ccccc1 [2-B09, N-(2-phenylprop-2-en-1-yl)prop-2-enamide] | 57%
34 | C=CC(=O)N1CCC(C(=O)NC(C)(c2noc(C)n2)C2CC2)CC1 (stereo not shown) [2-B10, N-[1-cyclopropyl-1-(5-methyl-1,2,4-oxadiazol-3-yl)ethyl]-1-(prop-2-enoyl)piperidine-4-carboxamide] | 79.8%
35 | C=CC(=O)NCCC(=O)N1CCC(O)(c2c(F)cccc2F)CC1 [2-B11, N-{3-[4-(2,6-difluorophenyl)-4-hydroxypiperidin-1-yl]-3-oxopropyl}prop-2-enamide] | 60%
36 | C=CC(=O)N1CCC(C(=O)NC2CCOC3(CCSCC3)C2)CC1 (stereo not shown) [2-B12, N-{1-oxa-9-thiaspiro[5.5]undecan-4-yl}-1-(prop-2-enoyl)piperidine-4-carboxamide] | 97.1%
37 | C=CC(=O)NCCc1ccc(S(N)(=O)=O)cc1 [2-B13, N-[2-(4-sulfamoylphenyl)ethyl]prop-2-enamide] | 77.8%
